In ChEMBL document CHEMBL1201862, “PubChem BioAssay data set” (2004):
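Grown in 96-well plates, cells were treated for 48 hours with each compound at five concentrations. Insufficient inhibition: endpoint recorded as highest concentration tested. GI50: concentration for 50% inhibition of growth.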 The source made the active and inactive calls. No stated cut-off is given here; in the data, active = GI50 up to about 1.1 µM and inactive = higher.

Columns and labels:
Experiment in all cases: inhibition of tumour cell growth, NCI panel, 48 h
COLO 205 = system: COLO 205
SK-MEL-28 = system: SK-MEL-28
KM12 = system: KM12
SN12C = system: SN12C
HOP-92 = system: HOP-92
MOLT-4 = system: MOLT-4
RPMI-8226 = system: RPMI-8226
M14 = system: M14
CCRF-CEM = system: CCRF-CEM
SF-539 = system: SF-539
HOP-62 = system: HOP-62
IGROV-1 = system: IGROV-1
NCI-H460 = system: NCI-H460
NCI-H522 = system: NCI-H522
786-0 = system: 786-0
OVCAR-8 = system: OVCAR-8
HT-29 = system: HT-29
HL-60 = system: HL-60
CAKI-1 = system: CAKI-1

Measured: GI50

CCOc1ccc(OCC(=O)O)c2c1CCCC2=O
inactive: COLO 205 > 100 µM | SK-MEL-28 > 100 µM | KM12 > 100 µM | SN12C > 100 µM | HOP-92 > 100 µM | MOLT-4 > 100 µM | RPMI-8226 > 100 µM | M14 > 100 µM | CCRF-CEM > 10 µM | SF-539 > 100 µM | HOP-62 > 100 µM | IGROV-1 > 100 µM | NCI-H460 > 100 µM | NCI-H522 > 100 µM | 786-0 > 100 µM | OVCAR-8 > 100 µM | HT-29 > 100 µM | HL-60 > 100 µM

N=C(N)NCCCC(NCc1c2ccccc2[n+]([O-])c2ccccc12)C(=O)O (stereo unspecified)
inactive: COLO 205 > 100 µM | SK-MEL-28 40.8 µM | KM12 50.8 µM | SN12C 52.7 µM | MOLT-4 27.1 µM | RPMI-8226 30.3 µM | M14 85.5 µM | CAKI-1 60.8 µM | CCRF-CEM 24.5 µM | HOP-62 > 100 µM | IGROV-1 71.9 µM | NCI-H460 41.6 µM | NCI-H522 27 µM | 786-0 38.9 µM | OVCAR-8 52.5 µM | HT-29 37.3 µM | HL-60 24.9 µM

CCN(CC)CCOC(c1ccccc1)c1ccccc1.CCOC(=O)Nc1ccc(S(=O)(=O)OC)cc1.CCOC(=O)Nc1ccc(S(=O)(=O)OC)cc1.Nc1ccc(C(=O)O)c(O)c1
inactive: COLO 205 > 100 µM | SK-MEL-28 > 100 µM | KM12 > 100 µM | SN12C > 100 µM | HOP-92 > 100 µM | MOLT-4 > 100 µM | M14 > 100 µM | CAKI-1 > 100 µM | CCRF-CEM > 100 µM | SF-539 > 100 µM | HOP-62 > 100 µM | IGROV-1 > 100 µM | NCI-H460 > 100 µM | NCI-H522 > 100 µM | 786-0 > 100 µM | OVCAR-8 > 100 µM | HT-29 > 100 µM | HL-60 > 100 µM

CC1CCC2[C@@H](C)COC3O[C@]4(C)CCC1C32OO4 (stereo partly specified)
inactive: COLO 205 > 100 µM | SK-MEL-28 > 100 µM | KM12 > 100 µM | SN12C > 100 µM | HOP-92 > 100 µM | M14 > 100 µM | CAKI-1 > 100 µM | CCRF-CEM 5.15 µM | SF-539 > 100 µM | HOP-62 > 100 µM | IGROV-1 > 100 µM | NCI-H460 > 100 µM | NCI-H522 > 100 µM | 786-0 > 100 µM | OVCAR-8 > 100 µM | HT-29 > 100 µM

CC(C)=CCC/C(C)=C/Cc1c(O)ccc2c1[nH]c1cc(O)c(C)cc12
inactive: COLO 205 > 25 µM | SK-MEL-28 > 25 µM | KM12 10.6 µM | SN12C 14.6 µM | HOP-92 > 25 µM | MOLT-4 6.07 µM | RPMI-8226 17.8 µM | M14 11.8 µM | CCRF-CEM 7.55 µM | SF-539 6.95 µM | HOP-62 7.62 µM | IGROV-1 14.7 µM | NCI-H460 11.9 µM | NCI-H522 7.96 µM | 786-0 9.48 µM | OVCAR-8 9.46 µM | HT-29 > 25 µM | HL-60 7.53 µM

CN(C)CCN1CCc2c([nH]c3ccccc23)C1c1cccnc1 (stereo unspecified)
inactive: SK-MEL-28 > 100 µM | KM12 > 100 µM | SN12C > 100 µM | HOP-92 63.7 µM | MOLT-4 > 100 µM | RPMI-8226 > 100 µM | M14 > 100 µM | CAKI-1 > 100 µM | CCRF-CEM > 100 µM | SF-539 > 100 µM | HOP-62 > 100 µM | IGROV-1 > 100 µM | NCI-H460 > 100 µM | NCI-H522 > 100 µM | 786-0 > 100 µM | OVCAR-8 > 100 µM | HT-29 > 100 µM | HL-60 > 100 µM

CCN(CC)CCCC(C)Nc1c2cc(OC)cc(C)c2nc2c(C)c(Cl)ccc12 (stereo unspecified)
inactive: COLO 205 1.64 µM | SK-MEL-28 1.95 µM | KM12 1.64 µM | SN12C 1.57 µM | HOP-92 1.22 µM | MOLT-4 1.74 µM | RPMI-8226 2.62 µM | M14 2.02 µM | CAKI-1 1.92 µM | CCRF-CEM 1.47 µM | HOP-62 1.66 µM | IGROV-1 1.67 µM | NCI-H460 1.8 µM | NCI-H522 1.67 µM | 786-0 1.64 µM | OVCAR-8 1.78 µM | HT-29 1.62 µM | HL-60 2.15 µM

Cc1nc(C(=O)O)c2ccccc2n1
inactive: COLO 205 > 100 µM | SK-MEL-28 > 100 µM | KM12 > 100 µM | SN12C > 100 µM | HOP-92 > 100 µM | MOLT-4 > 100 µM | RPMI-8226 > 100 µM | CAKI-1 > 100 µM | CCRF-CEM > 100 µM | SF-539 > 100 µM | IGROV-1 > 100 µM | NCI-H460 > 100 µM | 786-0 > 100 µM | OVCAR-8 > 100 µM | HT-29 > 100 µM | HL-60 > 100 µM

CCOC(=O)c1c(-c2ccc(O)c(OC)c2)c(C#N)c(=S)n(C2OC(CO)C(O)C(O)C2O)c1-c1ccccc1 (stereo unspecified)
inactive: COLO 205 > 100 µM | SK-MEL-28 > 100 µM | KM12 > 100 µM | SN12C > 100 µM | HOP-92 66.7 µM | MOLT-4 54.3 µM | RPMI-8226 72.3 µM | M14 > 100 µM | CAKI-1 > 100 µM | CCRF-CEM > 100 µM | HOP-62 > 100 µM | IGROV-1 > 100 µM | NCI-H460 > 100 µM | 786-0 > 100 µM | OVCAR-8 > 100 µM | HT-29 > 100 µM | HL-60 > 100 µM

CC/C=C/c1cc2c(c3[nH]ccc13)[C@@H](C)CC2C.CC/C=C/c1cc2cc[nH]c2c2c1C(C)C[C@@H]2C.CCc1cc2c(c3[nH]ccc13)[C@@H](C)CC2C (stereo partly specified)
inactive: COLO 205 20.9 µM | SK-MEL-28 15.7 µM | KM12 16.8 µM | SN12C 15.1 µM | M14 13.5 µM | CAKI-1 15.1 µM | SF-539 16.1 µM | HOP-62 16.3 µM | NCI-H460 15.2 µM | NCI-H522 15.6 µM | 786-0 17 µM | OVCAR-8 17.2 µM | HT-29 14.4 µM | HL-60 18.3 µM

COc1cc(N2C(=O)C(=O)C3(CCCCC3)C2=O)cc(OC)c1OC
inactive: COLO 205 > 100 µM | SK-MEL-28 > 100 µM | KM12 > 100 µM | SN12C > 100 µM | MOLT-4 > 100 µM | RPMI-8226 > 100 µM | M14 > 100 µM | CAKI-1 > 100 µM | CCRF-CEM > 100 µM | SF-539 > 100 µM | HOP-62 57.5 µM | NCI-H522 > 100 µM | 786-0 > 100 µM | OVCAR-8 > 100 µM | HT-29 > 100 µM | HL-60 > 100 µM
